Laboratory results reported in US8999970B2, “Administration of an anti-obesity compound to individuals with renal impairment” (Arena Pharmaceuticals, Inc., priority 2010, dated 2015).
“Also recorded” adds a separate entry of the source.

Experiments:
[1] = Clinical trial APD356-016: plasma and urine pharmacokinetics of lorcaserin, M1 and M5 after a 10 mg dose in subjects with renal impairment; settings: for Ae0-120 / fe0-120: urine; for AUC24 hr / Cmax / t1/2: 10 mg QD Authentic, Day 1
Method: The interaction of renal insufficiency with the pharmacokinetics, tolerability and safety of lorcaserin were evaluated in a formal PK study in subjects with renal impairment and in the populations studied in phase 2 and phase 3 clinical studies.
The pharmacokinetic properties of lorcaserin in subjects with varying degrees of renal impairment were evaluated in clinical trial APD356-016. At the time of study conduct and analysis, subjects were assigned to renal impairment groups based on creatinine clearance calculated using IDEAL body weight (Table 1). This calculation was used to avoid overestimation of creatinine clearance due to the excess body weight (overweight and obese subjects were enrolled in the trial). Summaries of pharmacokinetic properties by group assignment using creatinine clearance calculated using ACTUAL body weights are also provided in the sections that follow.
The FDA expects a reasonable margin between anticipated exposures and exposures that may produce toxicity. A reasonable margin can vary depending on the expected toxicity, but generally is an order of magnitude (10 times), but can sometimes be less for mild toxicity.
Table 13. Summary of Plasma Concentrations (ng/mL) of HSO3-APD356 Metabolite over Time by Group: Severe Renal Impairment Not Receiving Dialysis (see Table 13 next page)
Subject number 3140-505 was on dialysis and grouped in the end stage renal disease group.

[2] = test system: panel of receptors, ion channels and transporters; assay: Pharmacological activity of metabolites at a panel of receptors, ion channels and transporters
[3] = Preclinical toxicology: M1 and M5 pharmacokinetics after oral administration of lorcaserin, 52 wk, rats
[4] = 10 mg dose, Mild, actual BW groups
[5] = 10 mg dose, Mild, ideal BW groups
[6] = 10 mg dose, Moderate, actual BW groups
[7] = 10 mg dose, Moderate, ideal BW groups
[8] = 10 mg dose, Normal, actual BW groups
[9] = 10 mg dose, Normal, ideal BW groups
[10] = 10 mg dose, Severe N = 1, actual BW groups
[11] = 10 mg dose, Severe, ideal BW groups
[12] = lorcaserin 10 mg/kg/day oral, F
[13] = lorcaserin 10 mg/kg/day oral, M
[14] = lorcaserin 30 mg/kg/day oral, F
[15] = lorcaserin 30 mg/kg/day oral, M
[16] = lorcaserin 100 mg/kg/day oral, F
[17] = lorcaserin 100 mg/kg/day oral, M

C[C@H]1CN(S(=O)(=O)O)CCc2ccc(Cl)cc21 [Compound M1, lorcaserin sulfamate]
% AUC0-inf Extrapolated [1, 4]: 4.54%
ClNR/F [1, 4]: 16.7 L/h
T1/2z [1, 4]: 14.6 h
% AUC0-inf Extrapolated [1, 5]: 3.36%
ClNR/F [1, 5]: 12.8 L/h
T1/2z [1, 5]: 13.0 h
% AUC0-inf Extrapolated [1, 6]: 3.74%
ClNR/F [1, 6]: 18.2 L/h
T1/2z [1, 6]: 14.9 h
% AUC0-inf Extrapolated [1, 7]: 4.92%
ClNR/F [1, 7]: 17.0 L/h
T1/2z [1, 7]: 15.9 h
% AUC0-inf Extrapolated [1, 8]: 3.57%
ClNR/F [1, 8]: 15.1 L/h
T1/2z [1, 8]: 12.1 h
% AUC0-inf Extrapolated [1, 9]: 3.81%
ClNR/F [1, 9]: 17.1 L/h
T1/2z [1, 9]: 11.0 h
% AUC0-inf Extrapolated [1, 10]: 3.70%
ClNR/F [1, 10]: 17.2 L/h
T1/2z [1, 10]: 18.8 h
% AUC0-inf Extrapolated [1, 11]: 3.59%
AUC0-inf [1, 11]: 23.6 µg·h/mL
ClNR/F [1, 11]: 19.0 L/h
T1/2z [1, 11]: 15.0 h
Ae0-120 [1, 4]: 297 µg
fe0-120 [1, 4]: 0.0352
Ae0-120 [1, 5]: 326 µg
fe0-120 [1, 5]: 0.0386
Ae0-120 [1, 6]: 304 µg
fe0-120 [1, 6]: 0.0360
Ae0-120 [1, 7]: 327 µg
fe0-120 [1, 7]: 0.0387
Ae0-120 [1, 8]: 257 µg
fe0-120 [1, 8]: 0.0304
Ae0-120 [1, 9]: 185 µg
fe0-120 [1, 9]: 0.0220
Ae0-120 [1, 10]: 204 µg
fe0-120 [1, 10]: 0.0242
Ae0-120 [1, 11]: 280 µg
fe0-120 [1, 11]: 0.0332
Removal by hemodialysis ([1]; ESRD): not removed; also recorded: not cleared
AUC24 hr ([1]; ESRD): 3.65 µg·h/mL
Cmax ([1]; ESRD): 67.6 ng/mL
AUC24 hr ([1]; Mild): 1.94 µg·h/mL
Cmax ([1]; Mild): 43.5 ng/mL
t1/2 ([1]; Mild): 45.5 h
AUC24 hr ([1]; Moderate): 2.24 µg·h/mL
Cmax ([1]; Moderate): 34.1 ng/mL
t1/2 ([1]; Moderate): 70.8 h
AUC24 hr ([1]; Normal): 1.27 µg·h/mL
Cmax ([1]; Normal): 33.6 ng/mL
t1/2 ([1]; Normal): 36.2 h
AUC24 hr ([1]; Severe): 7.85 µg·h/mL
Cmax ([1]; Severe): 103 ng/mL
t1/2 ([1]; Severe): 220 h
Exposure (Geometric Mean Ratio for AUCinf) increase compared to normal subjects ([1]; mild (CLcr=51-80 mL/min)): 1.6 fold
Terminal half-life prolonged by ([1]; mild renal impairment): 26%
Exposure (Geometric Mean Ratio for AUCinf) increase compared to normal subjects ([1]; moderate (CLcr=31-50 mL/min)): 2.3 fold
Terminal half-life prolonged by ([1]; moderate renal impairment): 96%
Exposure (Geometric Mean Ratio for AUCinf) increase compared to normal subjects ([1]; severe (CLcr=5-30 mL/min)): 16.7 fold
Maximum individual Cmax relative to the mean Cmax ([1]; severe renal impairment): more than five times
Terminal half-life prolonged by ([1]; severe renal impairment): 508%
AUC0-inf of subject 3285-009 ([1]; severe renal impairment (ideal BW)): 101 µg·h/mL
Mean plasma concentration ([1]; severe renal impairment, eight individuals, day 1, 4 hours): 99.5 ng/mL
Plasma concentration (Cmax) of subject 3285-009 ([1]; severe renal impairment, day 1, 4 hours): 542 ng/mL
Activity at serotonin receptors or at a panel of more than 60 GPCRs, transporters and ion channels [2]: neither metabolite is active
Pharmacological activity against a panel of receptors, ion channels and transporters ([2]; concentration of 10 μM): pharmacologically inactive
AUC0-inf [3, 12]: 200 µg·h/mL
AUClast [3, 12]: 193 µg·h/mL
Cmax [3, 12]: 16300 ng/mL
tmax [3, 12]: 1.0 h
AUC0-inf [3, 13]: 175 µg·h/mL
AUClast [3, 13]: 170 µg·h/mL
Cmax [3, 13]: 15400 ng/mL
tmax [3, 13]: 1.0 h
AUC0-inf [3, 14]: 443 µg·h/mL
AUClast [3, 14]: 412 µg·h/mL
Cmax [3, 14]: 31700 ng/mL
tmax [3, 14]: 4.0 h
AUC0-inf [3, 15]: 338 µg·h/mL
AUClast [3, 15]: 319 µg·h/mL
Cmax [3, 15]: 23900 ng/mL
tmax [3, 15]: 1.0 h
AUC0-inf [3, 16]: 1480 µg·h/mL
AUClast [3, 16]: 1050 µg·h/mL
Cmax [3, 16]: 63700 ng/mL
tmax [3, 16]: 2.0 h
AUC0-inf [3, 17]: 927 µg·h/mL
AUClast [3, 17]: 633 µg·h/mL
Cmax [3, 17]: 36000 ng/mL
tmax [3, 17]: 0.5 h
